# According to PubChem BioAssay (NCI):
# Several values for one entry are separate records, joined by “and”; a condition that tells them apart may be missing. Identical values can stand only once.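 Results reflect a 48-hour exposure of cells in 96-well plates to compound at five concentrations. GI50 = concentration required for 50% inhibition of growth. Definition used: TGI = concentration required for complete inhibition of growth.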
# Tests used:
# Experiment in all cases: NCI anticancer screen, dose series, 48 h
# OVCAR-8 ovarian = tested on: OVCAR-8 ovarian
# M14 melanoma = tested on: M14 melanoma
# SN12C renal = tested on: SN12C renal
# UACC-257 melanoma = tested on: UACC-257 melanoma
# NCI-H23 lung = tested on: NCI-H23 lung
# NCI-H522 lung = tested on: NCI-H522 lung
# IGROV1 ovarian = tested on: IGROV1 ovarian
# OVCAR-5 ovarian = tested on: OVCAR-5 ovarian
# SK-OV-3 ovarian = tested on: SK-OV-3 ovarian
# SNB-75 CNS = tested on: SNB-75 CNS
SMILES,TGI (OVCAR-8 ovarian),TGI (M14 melanoma),TGI (SN12C renal),TGI (UACC-257 melanoma) [µM],TGI (NCI-H23 lung),TGI (NCI-H522 lung) [µM],TGI (IGROV1 ovarian) [µM],TGI (OVCAR-5 ovarian) [µM],TGI (SK-OV-3 ovarian) [µM],TGI (SNB-75 CNS) [µM],GI50 (OVCAR-5 ovarian) [µM],GI50 (OVCAR-8 ovarian),GI50 (SNB-75 CNS) [µM],GI50 (SN12C renal),GI50 (UACC-257 melanoma) [µM],GI50 (NCI-H23 lung),GI50 (NCI-H522 lung) [µM],GI50 (IGROV1 ovarian) [µM],GI50 (SK-OV-3 ovarian) [µM],GI50 (M14 melanoma)
CC(=O)Oc1cc(Cl)c(OC(C)=O)c2c(OC(C)=O)c(C)c(O[Si](C)(C)C(C)(C)C)cc12,7.56 µM,19.6 µM,23.1 µM,11.6,17.1 µM,19,12.5,–,–,–,–,–,–,–,–,–,–,–,–,–
N#CC(C(=O)O)C(c1c(Cl)cccc1Cl)C(C#N)C(=O)O (stereo not drawn),> 100 µM,> 100 µM,> 100 µM,> 100,> 100 µM,> 100,> 100,> 100,> 100,–,–,–,–,–,–,–,–,–,–,–
COc1cc(/C=C2\Cc3ccccc3C2=O)cc(OC)c1OC,> 100 µM,> 100 µM,> 100 µM,> 100,> 100 µM,> 100,–,> 100,> 100,> 100,–,–,–,–,–,–,–,–,–,–
O=C(CC1SC(=Nc2ccccc2Cl)NC1=O)Nc1ccc(Cl)cc1 (stereo not drawn),–,> 100 µM,> 100 µM,> 100,> 100 µM,–,> 100,> 100,> 100,–,–,–,–,–,–,–,–,–,–,–
Cc1ccccc1C[P+](c1ccccc1)(c1ccccc1)c1ccccc1,> 100 µM,–,> 100 µM,4.65,> 100 µM,5.73,> 100,> 100,9.27,16.2,2.86,1.48 µM,1.21,2.42 µM,0.371,1.97 µM,0.78,2.42,1.64,–
COC(=O)[C@H](Cc1cn(C)cn1)NC(=O)[C@@H](NC(=O)Nc1cc(C(F)(F)F)cc(C(F)(F)F)c1)C(C)(C)C,> 10 µM,> 10 µM,> 10 µM,> 10,> 10 µM,–,> 10,> 10,> 10,> 10,> 10,> 10 µM,> 10,> 10 µM,> 10,> 10 µM,–,> 10,> 10,> 10 µM
CSC1SCC2C(=O)N(C)C(C(C)C)C(=O)OCC(NC(=O)c3cnc4ccccc4n3)C(=O)NC(C)C(=O)N(C)C1C(=O)N(C)C(C(C)C)C(=O)OCC(NC(=O)c1cnc3ccccc3n1)C(=O)NC(C)C(=O)N2C (stereo not drawn),–,0.00121 µM and 0.00346 µM,–,–,–,–,–,–,–,–,< 0.001,< 0.001 µM,–,< 0.001 µM,< 0.001,< 0.001 µM,< 0.001,< 0.001,0.00174,< 0.001 µM
CN(C)C1C(=O)C(C(N)=O)=C(O)C2(O)C(=O)C3=C(O)c4c(O)cccc4C(C)(O)C3CC12 (stereo not drawn),34.9 µM and > 100 µM,> 100 µM,32.5 µM and > 100 µM,> 100,58.5 µM and > 100 µM,> 100,> 100,> 100,> 100,–,–,15.4 µM and > 100 µM,–,18.4 µM and > 100 µM,–,31.4 µM and > 100 µM,–,–,–,46.1 µM and > 100 µM
CCC(C)(C)NS(=O)(=O)c1ccccc1,> 100 µM,> 100 µM,–,> 100,> 100 µM,–,> 100,> 100,> 100,> 100,–,–,–,–,–,–,–,–,–,–
CC(=O)OC1(C#N)CC2OC1C1N=NN(C(=O)OC(C)(C)C)C21 (stereo not drawn),> 100 µM,51.2 µM,> 100 µM,> 31.6,–,> 100,> 31.6,> 100,> 100,> 100,–,–,–,–,–,–,–,–,–,–
